Values joined by “and” are separate entries in the source; they are usually repeats but may differ in a detail not shown here. Equal values may be shown once.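 Protocol summary: plate cells (96-well), add compound at 5 concentrations, incubate 48 h, interpolate endpoints linearly. GI50 is the concentration that inhibits growth by half. The concentration for full growth arrest is given as TGI.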
Legend:
Assay in all cases: inhibition of tumour cell growth, NCI panel, 48 h
COLO 205 colon = tested on: COLO 205 colon
HS 578T breast = tested on: HS 578T breast
OVCAR-3 ovarian = tested on: OVCAR-3 ovarian
PC-3 prostate = tested on: PC-3 prostate
SK-MEL-5 melanoma = tested on: SK-MEL-5 melanoma
SNB-19 CNS = tested on: SNB-19 CNS
SNB-75 CNS = tested on: SNB-75 CNS
TK-10 renal = tested on: TK-10 renal
U251 CNS = tested on: U251 CNS
UO-31 renal = tested on: UO-31 renal

SMILES | GI50 (COLO 205 colon) | TGI (COLO 205 colon) | GI50 (HS 578T breast) | TGI (HS 578T breast) | GI50 (OVCAR-3 ovarian) | TGI (OVCAR-3 ovarian) | GI50 (PC-3 prostate) | TGI (PC-3 prostate) | GI50 (SK-MEL-5 melanoma) | TGI (SK-MEL-5 melanoma) | GI50 (SNB-19 CNS) | TGI (SNB-19 CNS) | GI50 (SNB-75 CNS) | TGI (SNB-75 CNS) | GI50 (TK-10 renal) | TGI (TK-10 renal) | GI50 (U251 CNS) | TGI (U251 CNS) | GI50 (UO-31 renal) | TGI (UO-31 renal)
CCOC(=O)c1c(CN2CCN(C)CC2)nc2ccc(Cl)cc2c1-c1ccccc1 | 1.71 µM | 3.57 µM | 4.69 µM | 23.1 µM | 6.5 µM | 19.6 µM | 8.83 µM | 24.8 µM | 1.72 µM | 3.18 µM | 12.7 µM | 25.6 µM | 2.15 µM | 8.95 µM | 5.11 µM | 13.6 µM | 8.26 µM | 23 µM | 5.98 µM | 19.5 µM
O=c1cccc(Cl)[nH]1 |  | > 100 µM |  | > 100 µM |  | > 100 µM |  | > 100 µM |  | > 100 µM |  | > 100 µM |  | > 100 µM |  | > 100 µM |  | > 100 µM |  | > 100 µM
COc1ccc2c(c1OC)O/C(=C\c1ncc([N+](=O)[O-])n1C)C2=O | 1.16 µM | 2.86 µM | 2.15 µM | > 22.8 µM | 1.6 µM | 6.16 µM | 3.76 µM | > 29.4 µM | 0.905 µM | 2.35 µM | 3.69 µM | 23.1 µM | 2.14 µM | 6.85 µM | 3.26 µM | > 24.1 µM | 2.95 µM | 13.9 µM | 0.957 µM | 4.39 µM
COc1cc(/C=C2\SC(N3CCCCC3)=NC2=O)ccc1OCCCCCCOc1ccc(/C=C2\SC(N3CCCCC3)=NC2=O)cc1OC | 19.9 µM | > 100 µM | 3.74 µM | 25.7 µM | 6.04 µM | 18.7 µM | 12.4 µM | 56.7 µM | 9.35 µM | 28.2 µM | 9.58 µM | 39.7 µM | 2.34 µM | 6.4 µM | 11.5 µM | 27.9 µM | 4.61 µM | 16.1 µM | 13.2 µM | 39.3 µM
COc1ccc(C(O)c2cc3c(N)c(C(=O)Nc4cccc(Br)c4C)sc3nc2C)cc1 (stereo not given) | 1.04 µM | > 11 µM | 0.106 µM | 3.75 µM | 0.103 µM | 1.08 µM | 0.618 µM | 18.4 µM | 0.143 µM | 0.922 µM | 0.211 µM | > 33.3 µM | 0.0816 µM | 11.2 µM | 4.21 µM | > 24.4 µM | 0.164 µM | 8.61 µM | 0.261 µM | > 33.3 µM
CNC(=O)OCc1nc(SC)n(C)c1COC(=O)NC |  | 295 µM |  | 438 µM |  | 444 µM |  | 484 µM |  | 327 µM |  | 743 µM |  | 349 µM |  | 702 µM |  | 599 µM |  | 444 µM
CCOc1ccc2cc(-c3nn(CC4CCNCC4)c4ncnc(N)c34)ccc2c1 | 12.2 µM | 27 µM | 10.2 µM | 43.4 µM | 18.1 µM | 43.8 µM | 15.5 µM | 41.9 µM | 16.4 µM | 29.9 µM | 16.7 µM | 34.5 µM | 5.13 µM | 20.8 µM | 16.8 µM | 38.8 µM | 13.7 µM | 29.5 µM | 5.61 µM | 20.7 µM
Nc1ncc2ncn(C3CCC(CO)O3)c2n1 (stereo not given) |  | > 100 µM |  | > 100 µM |  | > 100 µM |  | > 100 µM |  | > 100 µM |  | > 100 µM |  | > 100 µM |  | > 100 µM |  | > 100 µM |  | > 100 µM
CC1OC(OC2C(O)C(O)C(O)C(O)C2O)C(N)CC1N=C(N)C(=O)O (stereo not given) |  | > 100 µM |  | > 100 µM |  | > 100 µM |  | > 100 µM |  | > 100 µM |  | > 100 µM |  | > 100 µM |  | > 100 µM |  | > 100 µM |  | > 100 µM
COc1ccc(-c2cc(/C=C/C(=O)c3ccc(N)cc3)[nH]n2)cc1 | 1.85 µM | 3.45 µM | 4.04 µM | 24.4 µM | 1.25 µM | 2.97 µM | 2.42 µM | 10.1 µM | 2.71 µM | 9.25 µM | 2.29 µM | 11.6 µM | 2.25 µM | 11.4 µM | 2.81 µM | 13 µM | 1.24 µM | 2.57 µM | 1.18 µM | 2.56 µM
CCOC(=O)/C(=C\c1ccc2ccccc2c1)P(=O)(OCC)OCC | 2.26 µM | 4.89 µM | 7.17 µM | 75.8 µM | 1.95 µM | 4.07 µM | 2.84 µM | 6.81 µM | 2.55 µM | 6.5 µM | 4.45 µM | 18.6 µM | 2.57 µM | 14.8 µM | 2.85 µM | 8.97 µM | 2.64 µM | 7.86 µM | 1.72 µM | 4.4 µM
NCCCN=c1ccc2c3c1c(O)c1c(O)ccc(=O)c1c3[nH]n2CCNCCO | 1.61 µM | 5.91 µM and 6.96 µM | 1.77 µM | 4.8 µM | 4.18 µM | 17.4 µM and 22.5 µM | 5.08 µM | 15.6 µM and 68 µM | 0.706 µM | 3.61 µM and 4.11 µM | 0.821 µM | 6.57 µM and 14.1 µM | 0.423 µM | 5.14 µM and 4.69 µM | 6.59 µM | 21.3 µM and 77.7 µM | 0.606 µM and 0.485 µM | 5.61 µM and 27.7 µM | 3.78 µM and 14.2 µM | 24.5 µM and 98.1 µM
COc1cc2ncnc(Oc3cccc(NC(=O)Nc4cc(C(C)(C)C(F)(F)F)on4)c3)c2cc1OC | 0.103 µM and 0.153 µM | 5.71 µM and > 5.57 µM | 1.77 µM and 1.47 µM | 10.2 µM and > 7.23 µM | 2.66 µM and 3.62 µM | 16.5 µM and > 10 µM | 2.65 µM and 3.68 µM | 19.4 µM and > 10 µM | 1.3 µM and 1.45 µM | 3.01 µM and 3.67 µM | 4.5 µM and 4.99 µM | > 100 µM | 2.79 µM and 6.27 µM | 13.5 µM and > 10 µM | 0.948 µM and 0.82 µM | 4.67 µM and 4.32 µM | 2.98 µM and 4.09 µM | 14.1 µM and > 10 µM | 0.552 µM and 0.788 µM | 10.1 µM and > 7.68 µM
CCOC(=O)[C@@H]1CSC(CC)=C(C(=O)O)N1 | > 100 µM | > 100 µM | > 100 µM | > 100 µM | > 100 µM | > 100 µM | > 100 µM | > 100 µM | > 100 µM | > 100 µM | > 100 µM | > 100 µM | > 100 µM | > 100 µM | > 100 µM | > 100 µM | > 100 µM | > 100 µM | > 100 µM | > 100 µM

Source: PubChem BioAssay (NCI)
